In the NIST ThermoML archive (doi:10.1016/j.jct.2015.08.040):

Assay: xn = mol fraction of the nth substance listed
Settings: 100 kPa, Liquid; for speed of sound: Frequency=2 MHz, Linear variable-path acoustic interferometer; for mass density: Vibrating tube method

CCCCOCCO [2-butoxyethan-1-ol] + OCc1ccccc1
Settings | mass density, 298.15 K [kg/m3] | mass density, 303.15 K [kg/m3] | mass density, 308.15 K [kg/m3] | mass density, 313.15 K [kg/m3] | mass density, 318.15 K [kg/m3] | speed of sound, 298.15 K [m/s] | speed of sound, 308.15 K [m/s]
x2 = 0 | 896.46 | 892.22 | 887.97 | 883.7 | 879.42 | 1305 | 1275
x2 = 0.1042 | 909.14 | 904.89 | 900.6 | 896.2 | 891.93 | 1329 | 1296
x2 = 0.2038 | 921.94 | 917.61 | 913.28 | 908.82 | 904.49 | 1352 | 1317
x2 = 0.299 | 934.77 | 930.34 | 925.95 | 921.47 | 917.11 | 1373 | 1337
x2 = 0.3902 | 947.51 | 942.98 | 938.56 | 934.1 | 929.63 | 1394 | 1356
x2 = 0.4776 | 960.11 | 955.52 | 951.03 | 946.55 | 942.13 | 1413 | 1375
x2 = 0.5614 | 972.47 | 967.75 | 963.31 | 958.86 | 954.41 | 1433 | 1394
x2 = 0.6418 | 984.52 | 979.84 | 975.34 | 970.91 | 966.56 | 1452 | 1412
x2 = 0.7191 | 996.35 | 991.7 | 987.22 | 982.84 | 978.55 | 1470 | 1430
x2 = 0.7933 | 1007.85 | 1003.3 | 998.89 | 994.59 | 990.4 | 1486 | 1446
x2 = 0.8648 | 1019.13 | 1014.73 | 1010.48 | 1006.26 | 1002.24 | 1503 | 1463
x2 = 0.9336 | 1030.15 | 1025.98 | 1021.88 | 1017.81 | 1013.89 | 1519 | 1479
